Like-named read-outs stand apart in the source and are kept apart here.
Legend:
[1] = test system: K562 (chronic myelogenous leukaemia); experiment: Effect of compounds on tumor cell lines (assay of Latham et al.), K562; type: cell-based; conditions: K562 cells
How it was run: (§1)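 After 96 h of exposure to compound (1–100 μM in DMSO; one compound at 0.1–100 μM), effects were scored by inverted-microscope inspection, with trypan blue viable counts by hemacytometer when required. Cells were seeded at 2.5×10^4 per well and dosed 24 h after plating.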

DU145 (prostate cancer) = experiment: Effect of compounds on tumor cell lines (assay of Latham et al.), DU145; type: cell-based; conditions: DU145 cells, read-out: DU 145 potency (IC50)
How it was run: as §1

[2] = Homo sapiens, Table 4, examined 96 hours after treatment, 1 μM to 100 μM in DMSO, read-out: K 562 potency (IC50)
[3] = Homo sapiens, DU-145, Table 4, examined 96 hours after treatment, 1 μM to 100 μM in DMSO
[4] = 96 hours after treatment, 1 μM to 100 μM, read-out: K 562 potency (IC50)
[5] = 96 hours after treatment, 1 μM to 100 μM

| SMILES | melting point [°C] | IC50 [1, 2] [µM] | IC50 (DU145 (prostate cancer); [3]) [µM] | further results |
| --- | --- | --- | --- | --- |
| COc1ccc(/C=C(\C(=O)c2ccc(Br)cc2)S(=O)(=O)Cc2ccc(Cl)cc2)c(O)c1 [Example 382] | 72 to 78 | 10 to 25 | 10 to 25 |  |
| Cc1cc(C)cc(/C=C(\C(=O)c2ccc(Cl)cc2)S(=O)(=O)Cc2ccc(Cl)cc2)c1 [Example 385] | 146 to 152 | 1 to 10 | 1 to 10 |  |
| COc1cc(/C=C(\C(=O)c2ccc(Cl)cc2)S(=O)(=O)Cc2ccccc2Cl)cc(OC)c1 [Example 359] | 133 to 138 | 50 to 100 | > 100 |  |
| O=C(/C(=C\c1ccc(O)c([N+](=O)[O-])c1)S(=O)(=O)Cc1ccc(Br)cc1)c1ccc(Br)cc1 [Example 374] | 110 to 112 | 1 to 10 | 10 to 25 |  |
| COc1cc(OC)c(/C=C(\C(=O)c2ccc(Br)cc2)S(=O)(=O)Cc2ccc(Cl)cc2)c(OC)c1 [Example 378] | 207 to 210 | 25 to 50 | 25 to 50 |  |
| Cc1ccc(/C=C(\C(=O)c2ccc(Cl)cc2)S(=O)(=O)Cc2ccc(Cl)cc2Cl)s1 [Example 356] | 115 to 117 | 25 to 50 | 10 to 25 |  |
| O=C(/C(=C\c1ccc(O)c([N+](=O)[O-])c1)S(=O)(=O)Cc1ccccc1Cl)c1ccc(Cl)cc1 [Example 362] | 222 to 226 |  |  |  |
| COc1ccc(/C=C(\C(=O)c2ccc(Cl)cc2)S(=O)(=O)Cc2ccccc2Cl)cc1 [Example 363] | 195 to 210 |  |  |  |
| Cc1ccc(C=C(Sc2ccc(F)cc2)C(=O)c2ccc(Cl)cc2)s1 [Example 60] |  |  |  | IC50 ([1]; Table 1, examined 96 hours after treatment, 1 μM to 100 μM in DMSO, read-out: K 562 potency (IC50)): 25 to 50 µM; IC50 (DU145 (prostate cancer); Table 1, examined 96 hours after treatment, 1 μM to 100 μM in DMSO): 25 to 50 µM |
| CN1CCN(CCCNC(=O)c2ccc(C(=O)C(=Cc3ccc(F)c([N+](=O)[O-])c3)SCc3ccc(Br)cc3)cc2)CC1 [Example 314] |  |  |  | IC50 [1, 4]: 1 to 10 µM; IC50 (DU145 (prostate cancer); [5]): 1 to 10 µM |
| O=C(C(=Cc1ccc(O)cc1O)SCc1ccc(Cl)cc1)c1ccc(Cl)cc1 [Example 196] |  |  |  | IC50 [1, 4]: 50 to 100 µM; IC50 (DU145 (prostate cancer); [5]): 50 to 100 µM |

Continued, in another order:

| melting point [°C] | IC50 [1, 2] [µM] | IC50 (DU145 (prostate cancer); [3]) [µM] | SMILES | further results |
| --- | --- | --- | --- | --- |
| 162 to 165 | 1 to 10 | 1 to 10 | Cc1ccc(CS(=O)(=O)/C(=C/c2cccc(Cl)c2Cl)C(=O)c2ccc(Cl)cc2)cc1 [Example 423] |  |
| 128 to 133 | 25 to 50 | 25 to 50 | Cc1ccc(CS(=O)(=O)/C(=C/c2ccc(Cl)cc2)C(=O)c2ccc(Cl)cc2)cc1 [Example 434] |  |
| 160 to 165 | > 100 | 25 to 50 | Cc1ccc(CS(=O)(=O)/C(=C/c2c[nH]c3ccccc23)C(=O)c2ccc(Cl)cc2)cc1 [Example 430] |  |
| 175 to 177 |  | 25 to 50 | O=C(/C(=C\c1ccc(I)cc1)S(=O)(=O)Cc1ccc(I)cc1)c1ccc(I)cc1 [Example 421, (E)-1-(4-iodophenyl)-2-(4-iodobenzylsulfonyl)-3-(4-iodophenyl)-prop-2-en-1-one] | IC50 ([1]; Homo sapiens, Table 4, examined 96 hours after treatment, 1 μM to 100 μM in DMSO, read-out: K 562 potency (IC50), given as number): > 50 µM |
| 140 to 143 | 10 to 25 | 10 to 25 | Cc1cc(C)cc(/C=C(\C(=O)c2ccc(Br)cc2)S(=O)(=O)Cc2ccc(F)cc2)c1 [Example 405] |  |
| 140 to 152 | 25 to 50 | 10 to 25 | CSc1ccc(/C=C(\C(=O)c2ccc(Cl)cc2)S(=O)(=O)Cc2ccc(C)cc2)cc1 [Example 437] |  |
| 164 to 168 | 10 to 25 | 25 to 50 | O=C(/C(=C\c1ccc(Br)cc1)S(=O)(=O)Cc1ccc(F)cc1)c1ccc(Br)cc1 [Example 409] |  |
| 121 to 123 |  |  | COc1ccc(/C=C(\C(=O)c2ccc(Br)cc2)S(=O)(=O)Cc2ccc(F)cc2)cc1 [Example 415] |  |
| 139 to 145 |  |  | O=C(/C(=C\c1ccccc1OCc1ccccc1)S(=O)(=O)Cc1ccc(F)cc1)c1ccc(Cl)cc1 [Example 402] |  |
| 176 to 180 |  |  | CN(C)c1ccc(/C=C(\C(=O)c2ccc(C(=O)O)cc2)S(=O)(=O)Cc2ccc(Cl)cc2)cc1 [Example 390] |  |
| 60 to 62 |  |  | COc1ccc(CS(=O)(=O)/C(=C/c2c(OC)cc(OC)cc2OC)C(=O)c2ccc(OC)cc2)cc1 [Example 422, (E)-1-(4-methoxyphenyl)-2-(4-methoxybenzylsulfonyl)-3-(2,4,6-trimethoxyphenyl)-prop-2-en-1-one] |  |
| 188 to 192 |  |  | O=C(/C(=C\c1ccc(O)cc1)S(=O)(=O)Cc1ccc(F)cc1)c1ccc(Br)cc1 [Example 413] |  |
| 145 to 151 |  |  | COc1ccccc1/C=C(\C(=O)c1ccc(Br)cc1)S(=O)(=O)Cc1ccc(F)cc1 [Example 404] |  |
| 156 to 161 |  |  | Cc1ccc(/C=C(\C(=O)c2ccc(Br)cc2)S(=O)(=O)Cc2ccc(F)cc2)s1 [Example 416] |  |
| 116 to 120 |  |  | Cc1ccc(/C=C(\C(=O)c2ccc(Cl)cc2)S(=O)(=O)Cc2ccc(F)cc2)s1 [Example 417] |  |
|  | 10 to 25 | 10 to 25 | CSc1ccc(/C=C(\C(=O)c2ccc(Br)cc2)S(=O)(=O)Cc2ccc(C)cc2)cc1 [Example 436] |  |

— US8808702B2, “Sulfide, sulfoxide and sulfone chalcone analogues, derivatives thereof and therapeutic uses thereof” (Temple University-of the Commonwealth System of Higher …, priority 2006, dated 2014)
